# According to the supplement of paper PMC10307832:
# What was measured:
# Experiment in all cases: relative viability (nuclei count vs DMSO), 5 days (fraction); higher = more cells survive
# NCI-H1651 = system: NCI-H1651
# How it was run: (§1)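 Dosing by pin tool came one day after lung cancer cell lines were seeded in 1536-well plates, using either one drug or a fixed anchor-drug dose plus five library-drug doses (not always all listed) in √10 steps. After 5 days, nuclei were counted on 4× images. Relative viability is treated-well nuclei count divided by vehicle-well nuclei count, and values are medians of duplicate plates.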
# LOU-NH91 = system: LOU-NH91
# How it was run: as §1
# NCI-H1734 = system: NCI-H1734
# How it was run: as §1
# 201T = system: 201T
# How it was run: as §1
# ABC-1 = system: ABC-1
# How it was run: as §1
# NCI-H647 = system: NCI-H647
# How it was run: as §1
# UMC-11 = system: UMC-11
# How it was run: as §1
# EMC-BAC-2 = system: EMC-BAC-2
# How it was run: as §1
# NCI-H23 = system: NCI-H23
# How it was run: as §1
# NCI-H2405 = system: NCI-H2405
# How it was run: as §1
# NCI-H1793 = system: NCI-H1793
# How it was run: as §1
# NCI-H1792 = system: NCI-H1792
# How it was run: as §1
# SK-LU-1 = system: SK-LU-1
# How it was run: as §1
# NCI-H1395 = system: NCI-H1395
# How it was run: as §1
# LCLC-103H = system: LCLC-103H
# How it was run: as §1
# NCI-H661 = system: NCI-H661
# How it was run: as §1
# NCI-H1437 = system: NCI-H1437
# How it was run: as §1
# EPLC-272H = system: EPLC-272H
# How it was run: as §1
# RERF-LC-KJ = system: RERF-LC-KJ
# How it was run: as §1
# NCI-H1975 = system: NCI-H1975
# How it was run: as §1
# NCI-H1915 = system: NCI-H1915
# How it was run: as §1
# NCI-H2023 = system: NCI-H2023
# How it was run: as §1
# HCC-78 = system: HCC-78
# How it was run: as §1
compound,measurement,setting,value
O=c1[nH]c2ccccc2n1C1CCN(CCCC(c2ccc(F)cc2)c2ccc(F)cc2)CC1 [Pimozide] + O=C(c1cc(Cc2n[nH]c(=O)c3ccccc23)ccc1F)N1CCN(C(=O)C2CC2)CC1 [Olaparib] (partner 8 µM),relative viability,NCI-H1651; first compound 0.08 µM,0.203
same,relative viability,NCI-H1651; first compound 0.253 µM,0.189
same,relative viability,NCI-H1651; first compound 0.8 µM,0.177
same,relative viability,NCI-H1651; first compound 2.53 µM,0.182
same,relative viability,NCI-H1651; first compound 8 µM,0.187
same,relative viability,LOU-NH91; first compound 0.08 µM,0.655
same,relative viability,LOU-NH91; first compound 0.253 µM,0.911
same,relative viability,LOU-NH91; first compound 0.8 µM,0.866
same,relative viability,LOU-NH91; first compound 2.53 µM,0.962
same,relative viability,LOU-NH91; first compound 8 µM,0.971
same,relative viability,NCI-H1734; first compound 0.08 µM,0.645
same,relative viability,NCI-H1734; first compound 0.253 µM,0.563
same,relative viability,NCI-H1734; first compound 0.8 µM,0.613
same,relative viability,NCI-H1734; first compound 2.53 µM,0.636
same,relative viability,NCI-H1734; first compound 8 µM,0.637
same,relative viability,201T; first compound 0.08 µM,0.876
same,relative viability,201T; first compound 0.253 µM,0.836
same,relative viability,201T; first compound 0.8 µM,0.807
same,relative viability,201T; first compound 2.53 µM,0.821
same,relative viability,201T; first compound 8 µM,0.719
same,relative viability,ABC-1; first compound 0.08 µM,0.782
same,relative viability,ABC-1; first compound 0.253 µM,0.975
same,relative viability,ABC-1; first compound 0.8 µM,1.21
same,relative viability,ABC-1; first compound 2.53 µM,0.618
same,relative viability,ABC-1; first compound 8 µM,0.477
same,relative viability,NCI-H647; first compound 0.08 µM,0.562
same,relative viability,NCI-H647; first compound 0.253 µM,0.503
same,relative viability,NCI-H647; first compound 0.8 µM,0.391
same,relative viability,NCI-H647; first compound 2.53 µM,0.495
same,relative viability,NCI-H647; first compound 8 µM,0.28
same,relative viability,UMC-11; first compound 0.08 µM,0.394
same,relative viability,UMC-11; first compound 0.253 µM,0.356
same,relative viability,UMC-11; first compound 0.8 µM,0.417
same,relative viability,UMC-11; first compound 2.53 µM,0.371
same,relative viability,UMC-11; first compound 8 µM,0.466
same,relative viability,EMC-BAC-2; first compound 0.08 µM,0.506
same,relative viability,EMC-BAC-2; first compound 0.253 µM,0.463
same,relative viability,EMC-BAC-2; first compound 0.8 µM,0.455
same,relative viability,EMC-BAC-2; first compound 2.53 µM,0.456
same,relative viability,EMC-BAC-2; first compound 8 µM,0.448
same,relative viability,NCI-H23; first compound 0.08 µM,0.293
same,relative viability,NCI-H23; first compound 0.253 µM,0.326
same,relative viability,NCI-H23; first compound 0.8 µM,0.325
same,relative viability,NCI-H23; first compound 2.53 µM,0.285
same,relative viability,NCI-H23; first compound 8 µM,0.275
same,relative viability,NCI-H2405; first compound 0.08 µM,0.833
same,relative viability,NCI-H2405; first compound 0.253 µM,0.826
same,relative viability,NCI-H2405; first compound 0.8 µM,0.822
same,relative viability,NCI-H2405; first compound 2.53 µM,0.722
same,relative viability,NCI-H2405; first compound 8 µM,0.693
same,relative viability,NCI-H1793; first compound 0.08 µM,0.762
same,relative viability,NCI-H1793; first compound 0.253 µM,0.826
same,relative viability,NCI-H1793; first compound 0.8 µM,0.875
same,relative viability,NCI-H1793; first compound 2.53 µM,0.772
same,relative viability,NCI-H1793; first compound 8 µM,0.706
same,relative viability,NCI-H1792; first compound 0.08 µM,0.298
same,relative viability,NCI-H1792; first compound 0.253 µM,0.452
same,relative viability,NCI-H1792; first compound 0.8 µM,0.452
same,relative viability,NCI-H1792; first compound 2.53 µM,0.406
same,relative viability,NCI-H1792; first compound 8 µM,0.375
same,relative viability,SK-LU-1; first compound 0.08 µM,0.497
same,relative viability,SK-LU-1; first compound 0.253 µM,0.485
same,relative viability,SK-LU-1; first compound 0.8 µM,0.487
same,relative viability,SK-LU-1; first compound 2.53 µM,0.372
same,relative viability,SK-LU-1; first compound 8 µM,0.383
same,relative viability,NCI-H1395; first compound 0.08 µM,0.445
same,relative viability,NCI-H1395; first compound 0.253 µM,0.478
same,relative viability,NCI-H1395; first compound 0.8 µM,0.475
same,relative viability,NCI-H1395; first compound 2.53 µM,0.456
same,relative viability,NCI-H1395; first compound 8 µM,0.419
same,relative viability,LCLC-103H; first compound 0.08 µM,0.782
same,relative viability,LCLC-103H; first compound 0.253 µM,0.721
same,relative viability,LCLC-103H; first compound 0.8 µM,0.722
same,relative viability,LCLC-103H; first compound 2.53 µM,0.695
same,relative viability,LCLC-103H; first compound 8 µM,0.72
same,relative viability,NCI-H661; first compound 0.08 µM,0.735
same,relative viability,NCI-H661; first compound 0.253 µM,0.699
same,relative viability,NCI-H661; first compound 0.8 µM,0.704
same,relative viability,NCI-H661; first compound 2.53 µM,0.675
same,relative viability,NCI-H661; first compound 8 µM,0.587
same,relative viability,NCI-H1437; first compound 0.08 µM,0.615
same,relative viability,NCI-H1437; first compound 0.253 µM,0.616
same,relative viability,NCI-H1437; first compound 0.8 µM,0.6
same,relative viability,NCI-H1437; first compound 2.53 µM,0.573
same,relative viability,NCI-H1437; first compound 8 µM,0.463
same,relative viability,EPLC-272H; first compound 0.08 µM,0.869
same,relative viability,EPLC-272H; first compound 0.253 µM,0.709
same,relative viability,EPLC-272H; first compound 0.8 µM,0.847
same,relative viability,EPLC-272H; first compound 2.53 µM,0.554
same,relative viability,EPLC-272H; first compound 8 µM,0.646
same,relative viability,RERF-LC-KJ; first compound 0.08 µM,0.873
same,relative viability,RERF-LC-KJ; first compound 0.253 µM,0.823
same,relative viability,RERF-LC-KJ; first compound 0.8 µM,0.838
same,relative viability,RERF-LC-KJ; first compound 2.53 µM,0.659
same,relative viability,RERF-LC-KJ; first compound 8 µM,0.648
same,relative viability,NCI-H1975; first compound 0.08 µM,0.934
same,relative viability,NCI-H1975; first compound 0.253 µM,0.782
same,relative viability,NCI-H1975; first compound 0.8 µM,0.858
same,relative viability,NCI-H1975; first compound 2.53 µM,0.75
same,relative viability,NCI-H1975; first compound 8 µM,0.625
same,relative viability,NCI-H1915; first compound 0.08 µM,0.259
same,relative viability,NCI-H1915; first compound 0.253 µM,0.241
same,relative viability,NCI-H1915; first compound 2.53 µM,0.246
same,relative viability,NCI-H1915; first compound 8 µM,0.243
same,relative viability,NCI-H2023; first compound 0.08 µM,0.481
same,relative viability,NCI-H2023; first compound 0.253 µM,0.47
same,relative viability,NCI-H2023; first compound 0.8 µM,0.444
same,relative viability,NCI-H2023; first compound 2.53 µM,0.351
same,relative viability,NCI-H2023; first compound 8 µM,0.348
same,relative viability,HCC-78; first compound 0.08 µM,0.832
same,relative viability,HCC-78; first compound 0.8 µM,0.787
same,relative viability,HCC-78; first compound 2.53 µM,0.709
same,relative viability,HCC-78; first compound 8 µM,0.749
